Square brackets hold non-standard residues; d marks the D form. Peptide text beside a SMILES is read from it. NMeA = CN[C@@H](C)C(=O)O

What all share (assay type): functional
Assay [1] has as its system Rattus norvegicus. Briefly: Tested for antiallergic activity by studying mast cell stabilising activity after ip administration at a dose of 0.25 mg/kg in rats for four determinations. The note with it: route intraperitoneal.
The test system of assay [2] is Rattus norvegicus. Description: Tested for antiallergic activity by studying mast cell stabilising activity after ip administration at a dose of 2.5 mg/kg for five days in rats for four determinations. The note with it: route intraperitoneal.
Assay [3] concerns Rattus norvegicus. Description: Tested for antiallergic activity by studying mast cell stabilising activity after ip administration at a dose of 0.5 mg/kg for five days in rats for four determinations. The settings on record: route intraperitoneal.
Assay [4] concerns Rattus norvegicus. Briefly: Tested for antiallergic activity by studying mast cell stabilising activity after ip administration at a dose of 0.1 mg/kg for five days in rats for four determinations. The settings on record: route intraperitoneal.
Assay [5] has as its system Rattus norvegicus. Briefly: Tested for antiallergic activity by studying the protection of PCA (passive cutaneous anaphylaxis) after ip administration at a dose of 5.0 mg/kg in rats for four determinations. The note with it: route intraperitoneal.
Assay [6] concerns Rattus norvegicus. Description: Tested for antiallergic activity by studying the protection of PCA (passive cutaneous anaphylaxis) after ip administration at a dose of 2.5 mg/kg in rats for four determinations. The settings on record: route intraperitoneal.
In assay [7] the test system is Rattus norvegicus. Briefly: Effective dose required for inhibition of PCA at a compound concentration of 7.5 mg/kg po.
Assay [8] relates to Rattus norvegicus. Briefly: Tested for antiallergic activity by studying mast cell stabilising activity after ip administration at a dose of 1.0 mg/kg for five days in rats for four determinations. The settings on record: route intraperitoneal.
In assay [9] the test system is Rattus norvegicus. Briefly: Tested for antiallergic activity by studying the protection of PCA (passive cutaneous anaphylaxis) after ip administration at a dose of 10.0 mg/kg in rats for four determinations. The settings on record: route intraperitoneal.
Assay [10] deals with Rattus norvegicus. Briefly: Tested for antiallergic activity by studying the protection of PCA (passive cutaneous anaphylaxis) after ip administration at a dose of 1 mg/kg in rats for four determinations. The settings on record: route intraperitoneal.
For assay [11], the system named is Rattus norvegicus. Briefly: Tested for antiallergic activity by studying the protection of PCA (passive cutaneous anaphylaxis) after ip administration at a dose of 0.5 mg/kg in rats for four determinations. The settings on record: route intraperitoneal.
The test system of assay [12] is Rattus norvegicus. Briefly: Effective dose required for protection of mast cells using mast cell stabilising assay at a compound concentration of 7.5 mg/kg po.
Assay [13] has as its system Rattus norvegicus. Description: Tested for antiallergic activity by studying the protection of PCA (passive cutaneous anaphylaxis) after ip administration at a dose of 1.0 mg/kg in rats for four determinations. The settings on record: route intraperitoneal.
In assay [14] the test system is Rattus norvegicus. Briefly: Tested for antiallergic activity by studying mast cell stabilising activity after ip administration at a dose of 0.2 mg/kg for five days in rats for four determinations. The note with it: route intraperitoneal.
Assay [15] deals with Rattus norvegicus. Briefly: Tested for antiallergic activity by studying the protection of PCA (passive cutaneous anaphylaxis) after ip administration at a dose of 7.5 mg/kg in rats for four determinations. The note with it: route intraperitoneal.
For assay [16], the system named is Rattus norvegicus. Briefly: Tested for antiallergic activity by studying mast cell stabilising activity after ip administration at a dose of 50 mg/kg in rats for four determinations. The settings on record: route intraperitoneal.
Assay [17] has as its system Rattus norvegicus. Briefly: Tested for antiallergic activity by studying the protection of PCA (passive cutaneous anaphylaxis) after ip administration at a dose of 50 mg/kg in rats for four determinations. The note with it: route intraperitoneal.

Take `C[C@H](N)C(=O)N[C@@H](CC(=O)O)C(=O)N[C@@H](CO)C(=O)N[C@@H](CC(=O)O)C(=O)NCC(=O)N[C@@H](CCCCN)C(=O)O`: the Protection came out at 64% in assay [1]; 79% in assay [2]; 47% in assay [3]; 34% in assay [4]; 75% in assay [5]; 67% in assay [6]. The Protection in assay [8] was found to be 72%; in [9] it was 89%; in assay [10], 75%; in [11] it was 44%; in assay [13], 52%; in assay [14], 41%. The compound further had a Protection in assay [15] of 86%. In addition, the figures for the ED50 in [7] and in assay [12] were 0.9 mg/kg and 3 mg/kg, respectively.

On to `C[C@@H](N)C(=O)N[C@@H](CC(=O)O)C(=O)N[C@@H](CO)C(=O)N[C@@H](CC(=O)O)C(=O)NCC(=O)N[C@@H](CCCCN)C(=O)O`, for which the Protection in assay [1] was determined as 61%; in assay [10], 64%.

As to `CN[C@@H](C)C(=O)N[C@@H](CC(=O)O)C(=O)N[C@@H](CO)C(=O)N[C@@H](CC(=O)O)C(=O)NCC(=O)N[C@@H](CCCCN)C(=O)O` (H-[NMeA]DSDGK-OH), the Protection was 60% in [1] and 67% in [10].

For `O=C([O-])c1cc(=O)c2c(OCC(O)COc3cccc4oc(C(=O)[O-])cc(=O)c34)cccc2o1.[Na+].[Na+]` [CROMOLYN SODIUM], the Protection in assay [16] was 84%; in assay [17], 77%.

Turning to H-ADSDGK-NH2, the Protection in assay [1] is reported as 61%; in assay [10], 68%.

For H-AESDGK-OH, the Protection in assay [1] was 63%; in [10], 45%.

In the case of H-AGSDGK-OH, the Protection in assay [1] came out at 78%; in assay [2], 87%; in assay [3] it was 70%; in [4] it was 39%; in assay [5], 77%; in assay [6] it was 69%. Moreover, the Protection in assay [8] turned out to be 80%; in assay [9] it was 90%; in assay [10], 78%; in assay [11], 47%; in assay [13], 57%; in [14], 50%. The compound also showed a Protection in assay [15] of 88%. Besides, the ED50 in assay [7] is 0.6 mg/kg; in assay [12], 1 mg/kg.

The term ED50 denotes the dose that gives a 50% effect, or the effect in half of the subjects. Low values mean an effect at a small dose, high ones a need for a large dose.
